Measured values published in ChEMBL document CHEMBL5036347, “Design of the naphthyl-diarylpyrimidines as potent non-nucleoside reverse transcriptase inhibitors (NNRTIs) via structure-based extension into the entrance channel” (Eur J Med Chem, 2021).
In brackets after ≈: the same amount, converted by molar mass.

Legend:
[1] = Water solubility of compound at pH 2 at 0.1 to 10 mg by HPLC-UV analysis; format: physicochemical; details: dose 0.1-10 mg
[2] = Water solubility of compound at pH 7 at 0.1 to 10 mg by HPLC-UV analysis; format: physicochemical; details: dose 0.1-10 mg
[3] = Water solubility of compound at pH 7.4 at 0.1 to 10 mg by HPLC-UV analysis; format: physicochemical; details: dose 0.1-10 mg
[4] = system: Human immunodeficiency virus 1; assay: Anti-HIV activity against HIV-1 IIIB infected in human MT4 cells assessed as reduction in virus-induced cytopathic effect incubated for 5 days by MTT assay; format: functional, organism-based; details: Human immunodeficiency virus 1, IIIB, MT4, 120 h
[5] = system: Human immunodeficiency virus 1; assay: Antiviral activity against HIV1 harboring reverse transcriptase L100I mutant infected in human MT4 cells assessed as protection against virus-induced cytopathic effect incubated for 5 days by MTT assay; format: functional, organism-based; details: Human immunodeficiency virus 1, MT4, 120 h
[6] = system: Human immunodeficiency virus 1; assay: Antiviral activity against HIV1 harboring reverse transcriptase K103N mutant infected in human MT4 cells assessed as protection against virus-induced cytopathic effect incubated for 5 days by MTT assay; format: functional, organism-based; details: Human immunodeficiency virus 1, MT4, 120 h
[7] = system: Human immunodeficiency virus 1; assay: Antiviral activity against HIV1 harboring reverse transcriptase Y181C mutant infected in human MT4 cells assessed as protection against virus-induced cytopathic effect incubated for 5 days by MTT assay; format: functional, organism-based; details: Human immunodeficiency virus 1, MT4, 120 h
[8] = system: Human immunodeficiency virus 1; assay: Antiviral activity against HIV1 harboring reverse transcriptase Y188L mutant infected in human MT4 cells assessed as protection against virus-induced cytopathic effect incubated for 5 days by MTT assay; format: functional, organism-based; details: Human immunodeficiency virus 1, MT4, 120 h
[9] = system: Human immunodeficiency virus 1; assay: Antiviral activity against HIV1 harboring reverse transcriptase E138K mutant infected in human MT4 cells assessed as protection against virus-induced cytopathic effect incubated for 5 days by MTT assay; format: functional, organism-based; details: Human immunodeficiency virus 1, MT4, 120 h
[10] = system: Human immunodeficiency virus 1; assay: Antiviral activity against HIV1 harboring reverse transcriptase F227L/V106A mutant infected in human MT4 cells assessed as protection against virus-induced cytopathic effect incubated for 5 days by MTT assay; format: functional, organism-based; details: Human immunodeficiency virus 1, MT4, 120 h
[11] = system: Human immunodeficiency virus 1; assay: Antiviral activity against HIV1 harboring reverse transcriptase K103N/Y181C double mutant infected in human MT4 cells assessed as protection against virus-induced cytopathic effect incubated for 5 days by MTT assay; format: functional, organism-based; details: Human immunodeficiency virus 1, MT4, 120 h

SMILES: CC(=O)O.COc1cc2cc(C#N)ccc2c(OC)c1Oc1cc(N2CCC(O)C2)nc(Nc2ccc(C#N)cc2)n1 (stereo not given)
- solubility [1]: < 1 µg/mL
- solubility [2]: < 1 µg/mL
- solubility [3]: 3 µg/mL

SMILES: COc1cc2cc(C#N)ccc2c(OC)c1Oc1cc(N)nc(Nc2ccc(C#N)cc2)n1.O=C(O)/C=C\C(=O)O
- solubility [1]: 13 µg/mL
- solubility [2]: 7 µg/mL
- solubility [3]: 28 µg/mL

SMILES: CCNc1cc(Oc2c(OC)cc3cc(C#N)ccc3c2OC)nc(Nc2ccc(C#N)cc2)n1.O=C(O)C(F)(F)F
- solubility [1]: < 1 µg/mL
- solubility [2]: < 1 µg/mL
- solubility [3]: < 1 µg/mL

SMILES: CC(=O)O.COc1cc2cc(C#N)ccc2c(OC)c1Oc1cc(N)nc(Nc2ccc(C#N)cc2)n1
- solubility [1]: < 1 µg/mL
- solubility [2]: < 1 µg/mL
- solubility [3]: < 1 µg/mL

SMILES: CC(=O)O.CCNc1cc(Oc2c(OC)cc3cc(C#N)ccc3c2OC)nc(Nc2ccc(C#N)cc2)n1
- solubility [1]: 1 µg/mL
- solubility [2]: < 1 µg/mL
- solubility [3]: 19 µg/mL

SMILES: COc1cc2cc(C#N)ccc2c(OC)c1Oc1cc(N)nc(Nc2ccc(C#N)cc2)n1.Cl
- solubility [1]: 6 µg/mL
- solubility [2]: 1 µg/mL
- solubility [3]: 84 µg/mL

SMILES: COc1cc2cc(C#N)ccc2c(OC)c1Oc1cc(N)nc(Nc2ccc(C#N)cc2)n1.O=CO
- solubility [1]: 1 µg/mL
- solubility [2]: < 1 µg/mL
- solubility [3]: 2 µg/mL

SMILES: COc1cc2cc(C#N)ccc2c(OC)c1Oc1cc(N)nc(Nc2ccc(C#N)cc2)n1.I
- solubility [1]: < 1 µg/mL
- solubility [2]: < 1 µg/mL
- solubility [3]: 1 µg/mL

SMILES: COc1cc2cc(C#N)ccc2c(OC)c1Oc1cc(N2CCC(O)C2)nc(Nc2ccc(C#N)cc2)n1.I (stereo not given)
- solubility [1]: < 1 µg/mL
- solubility [2]: < 1 µg/mL
- solubility [3]: 9 µg/mL

SMILES: COc1cc2cc(C#N)ccc2c(OC)c1Oc1cc(N2CCC(O)C2)nc(Nc2ccc(C#N)cc2)n1.Cl (stereo not given)
- solubility [1]: < 1 µg/mL
- solubility [2]: < 1 µg/mL
- solubility [3]: 2 µg/mL

SMILES: COc1cc2cc(C#N)ccc2c(OC)c1Oc1cc(N)nc(Nc2ccc(C#N)cc2)n1.Cc1ccc(S(=O)(=O)O)cc1
- solubility [1]: 2 µg/mL
- solubility [2]: < 1 µg/mL
- solubility [3]: 2 µg/mL

SMILES: CCNc1cc(Oc2c(OC)cc3cc(C#N)ccc3c2OC)nc(Nc2ccc(C#N)cc2)n1.O=C(O)CC(O)(CC(=O)O)C(=O)O
- solubility [1]: 1 µg/mL
- solubility [2]: < 1 µg/mL
- solubility [3]: 1 µg/mL

SMILES: CCNc1cc(Oc2c(OC)cc3cc(C#N)ccc3c2OC)nc(Nc2ccc(C#N)cc2)n1.O=S(=O)(O)O
- solubility [1]: 9 µg/mL
- solubility [2]: 4 µg/mL
- solubility [3]: 115 µg/mL

SMILES: CCNc1cc(Oc2c(OC)cc3cc(C#N)ccc3c2OC)nc(Nc2ccc(C#N)cc2)n1.I
- solubility [1]: 1 µg/mL
- solubility [2]: < 1 µg/mL
- solubility [3]: 1 µg/mL

SMILES: Br.COc1cc2cc(C#N)ccc2c(OC)c1Oc1cc(N2CCC(O)C2)nc(Nc2ccc(C#N)cc2)n1 (stereo not given)
- solubility [1]: < 1 µg/mL
- solubility [2]: < 1 µg/mL
- solubility [3]: < 1 µg/mL

SMILES: CCNc1cc(Oc2c(OC)cc3cc(C#N)ccc3c2OC)nc(Nc2ccc(C#N)cc2)n1.CS(=O)(=O)O
- solubility [1]: < 1 µg/mL
- solubility [2]: < 1 µg/mL
- solubility [3]: 1 µg/mL

SMILES: COc1cc2cc(C#N)ccc2c(OC)c1Oc1cc(N2CCC(O)C2)nc(Nc2ccc(C#N)cc2)n1.O=CO (stereo not given)
- solubility [1]: < 1 µg/mL
- solubility [2]: < 1 µg/mL
- solubility [3]: 3 µg/mL

SMILES: COc1cc2cc(C#N)ccc2c(OC)c1Oc1cc(N)nc(Nc2ccc(C#N)cc2)n1.O=C(O)C(F)(F)F
- solubility [1]: < 1 µg/mL
- solubility [2]: 1 µg/mL
- solubility [3]: 3 µg/mL

SMILES: Br.CCNc1cc(Oc2c(OC)cc3cc(C#N)ccc3c2OC)nc(Nc2ccc(C#N)cc2)n1
- solubility [1]: 1 µg/mL
- solubility [2]: 1 µg/mL
- solubility [3]: 1 µg/mL

SMILES: O=C1Nc2ccc(Cl)cc2[C@@](C#CC2CC2)(C(F)(F)F)O1 [EFAVIRENZ]
- EC50 [4]: 4.3 nM
- EC50 [5]: 95 nM
- EC50 [6]: 140 nM
- EC50 [7]: 7.4 nM
- EC50 [8]: 7.3 nM
- EC50 [9]: 5.3 nM
- EC50 [10]: 330 nM
- EC50 [11]: 220 nM

SMILES: CCNc1cc(Oc2c(OC)cc3cc(C#N)ccc3c2OC)nc(Nc2ccc(C#N)cc2)n1.O=CO
- solubility [1]: < 1 µg/mL
- solubility [2]: < 1 µg/mL
- solubility [3]: 2 µg/mL

SMILES: COc1cc2cc(C#N)ccc2c(OC)c1Oc1cc(N2CCC(O)C2)nc(Nc2ccc(C#N)cc2)n1.CS(=O)(=O)O (stereo not given)
- solubility [1]: < 1 µg/mL
- solubility [2]: < 1 µg/mL
- solubility [3]: 2 µg/mL

SMILES: COc1cc2cc(C#N)ccc2c(OC)c1Oc1cc(N2CCC(O)C2)nc(Nc2ccc(C#N)cc2)n1.O=C(O)CC(O)(CC(=O)O)C(=O)O (stereo not given)
- solubility [1]: < 1 µg/mL
- solubility [2]: < 1 µg/mL
- solubility [3]: < 2 µg/mL

SMILES: COc1cc2cc(C#N)ccc2c(OC)c1Oc1cc(N2CCC(O)C2)nc(Nc2ccc(C#N)cc2)n1.O=C(O)C(F)(F)F (stereo not given)
- solubility [1]: < 1 µg/mL
- solubility [2]: < 1 µg/mL
- solubility [3]: 1 µg/mL

SMILES: CCNc1cc(Oc2c(OC)cc3cc(C#N)ccc3c2OC)nc(Nc2ccc(C#N)cc2)n1.Cl
- solubility [1]: 9 µg/mL
- solubility [2]: < 1 µg/mL
- solubility [3]: 11 µg/mL

SMILES: COc1cc2cc(C#N)ccc2c(OC)c1Oc1cc(N2CCC(O)C2)nc(Nc2ccc(C#N)cc2)n1.O=C(O)C(O)C(O)C(=O)O (stereo not given)
- solubility [1]: < 1 µg/mL
- solubility [2]: < 1 µg/mL
- solubility [3]: 3 µg/mL

SMILES: COc1cc2cc(C#N)ccc2c(OC)c1Oc1cc(N)nc(Nc2ccc(C#N)cc2)n1.O=C(O)CC(O)(CC(=O)O)C(=O)O
- solubility [1]: < 1 µg/mL
- solubility [2]: < 1 µg/mL
- solubility [3]: 4 µg/mL

SMILES: COc1cc2cc(C#N)ccc2c(OC)c1Oc1cc(N)nc(Nc2ccc(C#N)cc2)n1.CS(=O)(=O)O
- solubility [1]: 4 µg/mL
- solubility [2]: < 1 µg/mL
- solubility [3]: 11 µg/mL

SMILES: Cc1cc(C#N)cc(C)c1Oc1nc(Nc2ccc(C#N)cc2)nc(N)c1Br [ETRAVIRINE]
- EC50 [5]: 14 nM
- EC50 [6]: 3.8 nM
- EC50 [7]: 21 nM
- EC50 [8]: 30 nM
- EC50 [9]: 21 nM
- EC50 [10]: 27 nM
- EC50 [11]: 52 nM
- solubility [1]: 127 µg/mL (≈ 292 µM)
- solubility [2]: < 1 µg/mL
- solubility [3]: 1 µg/mL (≈ 2.3 µM)

SMILES: CCNc1cc(Oc2c(OC)cc3cc(C#N)ccc3c2OC)nc(Nc2ccc(C#N)cc2)n1.O=C(O)/C=C\C(=O)O
- solubility [1]: 2 µg/mL
- solubility [2]: 1 µg/mL
- solubility [3]: 47 µg/mL

SMILES: COc1cc2cc(C#N)ccc2c(OC)c1Oc1cc(N2CCC(O)C2)nc(Nc2ccc(C#N)cc2)n1.O=C(O)/C=C\C(=O)O (stereo not given)
- solubility [1]: < 1 µg/mL
- solubility [2]: < 1 µg/mL
- solubility [3]: 5 µg/mL

SMILES: COc1cc2cc(C#N)ccc2c(OC)c1Oc1cc(N2CCC(O)C2)nc(Nc2ccc(C#N)cc2)n1.O=S(=O)(O)O (stereo not given)
- solubility [1]: < 1 µg/mL
- solubility [2]: < 1 µg/mL
- solubility [3]: 2 µg/mL

SMILES: CCNc1cc(Oc2c(OC)cc3cc(C#N)ccc3c2OC)nc(Nc2ccc(C#N)cc2)n1.O=C(O)C(O)C(O)C(=O)O
- solubility [1]: 1 µg/mL
- solubility [2]: < 1 µg/mL
- solubility [3]: 29 µg/mL

SMILES: COc1cc2cc(C#N)ccc2c(OC)c1Oc1cc(N)nc(Nc2ccc(C#N)cc2)n1.O=S(=O)(O)O
- solubility [1]: < 1 µg/mL
- solubility [2]: < 1 µg/mL
- solubility [3]: 72 µg/mL

SMILES: CCNc1cc(Oc2c(OC)cc3cc(C#N)ccc3c2OC)nc(Nc2ccc(C#N)cc2)n1.Cc1ccc(S(=O)(=O)O)cc1
- solubility [1]: < 1 µg/mL
- solubility [2]: < 1 µg/mL
- solubility [3]: 12 µg/mL

SMILES: Br.COc1cc2cc(C#N)ccc2c(OC)c1Oc1cc(N)nc(Nc2ccc(C#N)cc2)n1
- solubility [1]: < 1 µg/mL
- solubility [2]: < 1 µg/mL
- solubility [3]: < 1 µg/mL

SMILES: COc1cc2cc(C#N)ccc2c(OC)c1Oc1cc(N)nc(Nc2ccc(C#N)cc2)n1.O=C(O)C(O)C(O)C(=O)O
- solubility [1]: < 1 µg/mL
- solubility [2]: < 1 µg/mL
- solubility [3]: 29 µg/mL

SMILES: COc1cc2cc(C#N)ccc2c(OC)c1Oc1cc(N2CCC(O)C2)nc(Nc2ccc(C#N)cc2)n1.Cc1ccc(S(=O)(=O)O)cc1 (stereo not given)
- solubility [1]: 8 µg/mL
- solubility [2]: 6 µg/mL
- solubility [3]: 13 µg/mL

SMILES: Cc1ccnc2c1NC(=O)c1cccnc1N2C1CC1 [NEVIRAPINE]
- EC50 [4]: 22000 nM
- EC50 [6]: 8490 nM
- EC50 [7]: 7150 nM
- EC50 [9]: 330 nM
